Experimental data reported in PMC6149822, “A New Series of Pyrrole-Based Chalcones: Synthesis and Evaluation of Antimicrobial Activity, Cytotoxicity, and Genotoxicity” (Molecules : A Journal of Synthetic Chemistry and Natural …, 2017).
In brackets after ≈: the same amount, converted by molar mass. Marks after values point to notes of the source that are not given here.

Key:
[1] = tested on: E. faecalis (ATCC 29212); assay: ATP luminescence microbial cell viability assay; type: cell-based, Enterococcus faecalis; settings: 24 h treatment, result in words
Procedure: (§1) A model from BioTek Instruments Inc. combined with a BacTiter-Glo^TM Microbial Cell Viability assay (Promega Corp., Madison, WI, USA) was used to provide a sensitive and rapid method for determining the number of viable microbial cells in culture based on quantitation of the ATP present. […] After incubation, cultures were added into the wells (final concentration of bacteria was 5 × 10^5 CFU/mL and 2.5 × 10^6 CFU/mL for yeasts). After adding the BacTiter reagent, incubation time for bacteria and yeasts was 5 min and 15 min, respectively.
(§2) The assay generates a “glow-type” luminescent signal, produced by the luciferase reaction. Briefly, after chemicals and strains were incubated for 24 h, 100 µL of the culture was taken from each well and mixed with the same volume of the BacTiter-Glo™ reagent in a white, opaque-walled microtiter plate. Control wells containing medium without cells were prepared to obtain a value for background luminescence. Cells without compound were used as an ATP-positive control. The microplates were further incubated under agitation for 7 min. Bioluminescence was recorded in a multi-detection microplate reader (BioTek Synergy 2 Multi-Mode Microplate Reader, BioTek Instruments, Winooski, VT, USA). In Figure 3, results were given as percentage of untreated control, which is set at 100%. Experiments were performed in triplicate and each sample was measured in four replicates.

[2] = tested on: C. albicans; assay: ATP luminescence microbial cell viability assay; type: cell-based, Candida albicans; settings: 24 h treatment, result in words
Procedure: as §1
The assay generates a “glow-type” luminescent signal, produced by the luciferase reaction. Briefly, after chemicals and strains were incubated for 24 h, 100 µL of the culture was taken from each well and mixed with the same volume of the BacTiter-Glo™ reagent in a white, opaque-walled microtiter plate. Control wells containing medium without cells were prepared to obtain a value for background luminescence. Cells without compound were used as an ATP-positive control. The microplates were further incubated under agitation for 7 min. Bioluminescence was recorded in a multi-detection microplate reader (BioTek Synergy 2 Multi-Mode Microplate Reader, BioTek Instruments, Winooski, VT, USA). […] Experiments were performed in triplicate and each sample was measured in four replicates.

[3] = tested on: C. glabrata; assay: ATP luminescence microbial cell viability assay; type: cell-based, Candida glabrata; settings: 24 h treatment, result in words
Procedure: as §1, §2

[4] = tested on: C6 rat glioma cell line; assay: MTT assay; type: cell-based; settings: Rattus norvegicus, C6
How it was run: (§3)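 1×10^4 cells/well exposed to compounds over 1.0–0.000316 mM (final DMSO <1%); viability read by MTT absorbance. Inhibition % calculated from OD versus blank and solvent control; IC50 from dose–response curve of inhibition % versus concentration, quadruplicate. NIH/3T3 served for selectivity.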

[5] = tested on: HepG2 human hepatocellular carcinoma cell line; assay: MTT assay; type: cell-based; settings: Homo sapiens, HepG2
How it was run: as §3

[6] = tested on: NIH/3T3 mouse embryonic fibroblast cell line; assay: MTT assay; type: cell-based; settings: Mus musculus, NIH3T3, healthy cells for selectivity
How it was run: as §3

[7] = tested on: Salmonella typhimurium TA100; assay: Ames MPF mutagenicity assay; type: cell-based; settings: for Revertants fold increase (over baseline) TA 100 S9+: with S9; for Revertants fold increase (over baseline) TA 100 S9−: without S9; for Genotoxicity classification (Ames MPF): TA100, with/without metabolic activation, 0.16-5 mg/mL
Procedure: (§4) An Ames MPF 98/100 mutagenicity assay sample kit (Xenometrix AG, Allschwil, Switzerland) was used to evaluate the genotoxicity of compounds 7 and 9 as described previously. Salmonella typhimurium TA98 (frameshift mutations) and TA100 (base-pair substitutions) strains were used and the compounds were tested in concentrations between […] and 5000 μg/mL (5.0, 2.5, 1.25, 0.625, 0.3125, 0.156 mg/mL in DMSO) in accordance with the guidelines. Mutagenity was tested with/without metabolic activation with an Aroclor™-1254 induced male Sprague–Dawley rat liver microsomal enzyme (S9) mix (Xenometrix AG, Allschwil, Switzerland). 2-Nitrofluorene (2.0 μg/mL) and 4-nitroquinoline N-oxide (0.1 μg/mL) were used without S9, and 1.0 μg/mL and 2.5 μg/mL of 2-aminoanthracene solutions were used with S9 against TA98 and TA100 as positive controls, respectively. At the end of each experiment, yellow wells were counted as positive and compared with the negative control. Fold induction over the negative control and fold induction over the baseline were calculated as described: Fold induction over the negative control is the ratio of the mean number of positive wells for the dose concentration divided by the mean number of positive wells for the zero-dose (negative) control. Fold induction over the baseline is the ratio of the mean number of positive wells for the dose concentration divided by the zero-dose baseline. The zero-dose baseline is obtained by adding one standard deviation to the mean number of positive wells of the zero-dose control. If the baseline is less than one, the value is set to one for calculation.
(§5) Genotoxicity was determined according to the previous criteria. For a baseline value of ≤3, significant increases between 2- and 3-fold of the baseline were classified as weak mutagens, and increases ≥3-fold of the baseline were classified as mutagens. For a baseline value of >3, significant increases between 1.5- and 2.5-fold of the baseline were classified as weak mutagens, and increases ≥2.5-fold of the baseline were classified as mutagens. At least two adjacent doses with significant increases, or a significant increase at the highest dose level, should be observed for a mutagenic compound. All of the doses were compared according to Student’s t-test at p < 0.05 for statistical significance.

[8] = tested on: Salmonella typhimurium TA98; assay: Ames MPF mutagenicity assay; type: cell-based; settings: for Revertants fold increase (over baseline) TA 98 S9+: with S9; for Revertants fold increase (over baseline) TA 98 S9−: without S9; for Genotoxicity classification (Ames MPF): TA98, with/without metabolic activation, 0.16-5 mg/mL
Procedure: as §4, §5

Row | Structure (SMILES) | IC50 [4] [µg/mL] | IC50 [5] [µg/mL] | IC50 [6] [µg/mL] | Revertants fold increase (over baseline) TA 100 S9+ ([7]; 0.16 mg/mL) | Revertants fold increase (over baseline) TA 100 S9− ([7]; 0.16 mg/mL) | Revertants fold increase (over baseline) TA 100 S9+ ([7]; 0.31 mg/mL) | Revertants fold increase (over baseline) TA 100 S9− ([7]; 0.31 mg/mL) | Revertants fold increase (over baseline) TA 100 S9+ ([7]; 0.63 mg/mL) | Revertants fold increase (over baseline) TA 100 S9− ([7]; 0.63 mg/mL) | Revertants fold increase (over baseline) TA 100 S9+ ([7]; 1.25 mg/mL) | Revertants fold increase (over baseline) TA 100 S9− ([7]; 1.25 mg/mL) | Revertants fold increase (over baseline) TA 100 S9+ ([7]; 2.5 mg/mL) | Revertants fold increase (over baseline) TA 100 S9− ([7]; 2.5 mg/mL) | Revertants fold increase (over baseline) TA 100 S9+ ([7]; 5 mg/mL) | Revertants fold increase (over baseline) TA 100 S9− ([7]; 5 mg/mL) | Genotoxicity classification (Ames MPF) [7] | Revertants fold increase (over baseline) TA 98 S9+ ([8]; 0.16 mg/mL) | Revertants fold increase (over baseline) TA 98 S9− ([8]; 0.16 mg/mL) | Revertants fold increase (over baseline) TA 98 S9+ ([8]; 0.31 mg/mL) | Revertants fold increase (over baseline) TA 98 S9− ([8]; 0.31 mg/mL) | further results
1 | Cn1cccc1C(=O)C=Cc1ccc(-c2ccc(Cl)cc2)o1 [Compound 7, 1-(1-Methyl-1H-pyrrol-2-yl)-3-(5-(4-chlorophenyl)furan-2-yl)prop-2-en-1-one] | 311 (≈ 998 µM) | 23 (≈ 73.8 µM) | 40 (≈ 128 µM) | 0.56 | 0.44 | 0.68 | 0.56 | 0.79 | 0.67 | 0.62 | 0.33 | 0.90 | 0.33 | 0.79 | 0.44 | non-genotoxic | 0.68 | 0.66 | 0.76 | 0.33 | antimicrobial activity in ATP bioluminescence assay [1]: sensitive; antifungal activity in ATP bioluminescence assay [2]: no statistically significant effects; antifungal activity in ATP bioluminescence assay [3]: antifungal activity close to ketoconazole; Revertants fold increase (over baseline) TA 98 S9+ ([8]; 0.63 mg/mL): 1.01; Revertants fold increase (over baseline) TA 98 S9− ([8]; 0.63 mg/mL): 0.44; Revertants fold increase (over baseline) TA 98 S9+ ([8]; 1.25 mg/mL): 0.68; Revertants fold increase (over baseline) TA 98 S9− ([8]; 1.25 mg/mL): 0.66; Revertants fold increase (over baseline) TA 98 S9+ ([8]; 2.5 mg/mL): 0.51; Revertants fold increase (over baseline) TA 98 S9− ([8]; 2.5 mg/mL): 0.33; Revertants fold increase (over baseline) TA 98 S9+ ([8]; 5 mg/mL): 0.25; Genotoxicity classification (Ames MPF) [8]: non-genotoxic
2 | Cn1cccc1C(=O)C=Cc1ccc(-c2cc(Cl)ccc2Cl)o1 [Compound 9, 1-(1-Methyl-1H-pyrrol-2-yl)-3-(5-(2,5-dichlorophenyl)furan-2-yl)prop-2-en-1-one] | 109 (≈ 315 µM) | 101 (≈ 292 µM) | 109 (≈ 315 µM) | 0.51 | 0.48 | 0.73 | 0.54 | 0.68 | 0.54 | 0.68 | 0.54 | 0.79 | 0.30 * | 0.90 | 0.12 * | non-genotoxic | 0.51 | 0.89 | 0.79 | 0.83 | Revertants fold increase (over baseline) TA 98 S9+ ([8]; 0.63 mg/mL): 0.34 *; Revertants fold increase (over baseline) TA 98 S9− ([8]; 0.63 mg/mL): 0.89; Revertants fold increase (over baseline) TA 98 S9+ ([8]; 1.25 mg/mL): 0.39; Revertants fold increase (over baseline) TA 98 S9− ([8]; 1.25 mg/mL): 1.07; Revertants fold increase (over baseline) TA 98 S9+ ([8]; 2.5 mg/mL): 0.79; Revertants fold increase (over baseline) TA 98 S9− ([8]; 2.5 mg/mL): 0.24 *; Revertants fold increase (over baseline) TA 98 S9+ ([8]; 5 mg/mL): 0.51; Revertants fold increase (over baseline) TA 98 S9− ([8]; 5 mg/mL): 0.54; Genotoxicity classification (Ames MPF) [8]: non-genotoxic
